Results taken from US11976083B2, “Inhibitors of peptidylarginine deiminases” (Gilead Sciences, Inc., priority 2020, dated 2024).

target: T1, human PAD4 (Homo sapiens, UniProt Q9UM07); test: In vitro PAD4 BAEE biochemical assay; conditions: BAEE substrate 3 mM, 5 nM PAD4, 2 mM calcium chloride; geometric mean of multiple experiments
T1 construct: human PAD4 (NM_012387), A2-P663, was PCR amplified; His-SUMO (N, cleaved yes); made in house; host or cells: E. coli BL21(DE3)
Method in brief: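 Recombinant PAD4 (5 nM final) with 2 mM CaCl2 was preincubated with compound for 30 min at 25 °C in MOPS pH 7.6 buffer with DTT, then reacted with 3 mM BAEE for 2 h at 25 °C. Released ammonia was detected fluorimetrically with o-phthalaldehyde/DTT; IC50 from four-parameter fit, geometric mean of experiments.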

T1 sequence (Q9UM07 2-663): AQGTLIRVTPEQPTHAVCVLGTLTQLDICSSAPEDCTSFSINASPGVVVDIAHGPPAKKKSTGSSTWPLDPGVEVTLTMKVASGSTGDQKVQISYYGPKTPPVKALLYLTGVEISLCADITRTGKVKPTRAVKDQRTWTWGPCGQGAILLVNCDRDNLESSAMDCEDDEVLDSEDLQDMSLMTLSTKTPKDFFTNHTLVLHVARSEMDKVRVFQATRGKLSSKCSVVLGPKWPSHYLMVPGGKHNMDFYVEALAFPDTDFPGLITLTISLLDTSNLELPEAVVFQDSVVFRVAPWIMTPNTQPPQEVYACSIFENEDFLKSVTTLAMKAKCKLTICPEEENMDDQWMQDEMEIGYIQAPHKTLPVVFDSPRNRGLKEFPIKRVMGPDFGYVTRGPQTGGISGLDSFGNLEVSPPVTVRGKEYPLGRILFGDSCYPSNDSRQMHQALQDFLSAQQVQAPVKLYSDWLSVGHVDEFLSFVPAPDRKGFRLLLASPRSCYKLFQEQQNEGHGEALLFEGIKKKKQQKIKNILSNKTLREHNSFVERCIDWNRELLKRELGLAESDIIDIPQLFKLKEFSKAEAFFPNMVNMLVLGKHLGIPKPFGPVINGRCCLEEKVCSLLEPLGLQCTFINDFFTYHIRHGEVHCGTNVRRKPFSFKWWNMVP

Row | SMILES | IC50
1 | COc1cc(C(=O)N[C@H]2CNC[C@H](C)C2)cc2nc(-c3cc4ccc5nc4n3CCCCCCC(C)(C)C(=O)N[C@@H]5C)n(C)c12 [Example 67, 7-methoxy-1-methyl-~{N}-[(3~{R},5~{R})-5-methyl-3-piperidyl]-2-[(11~{R})-8,8,11-trimethyl-9-oxo-1,10,19-triazatricyclo[10.5.2.0^{15,18}]nonadeca-12(19),13,15(18),16-tetraen-17-yl]benzimidazole-5-carboxamide] | 1300 nM
2 | COc1cc(C(=O)N2[C@H]3CC[C@@H]2[C@H](N)C3)cc2nc(-c3cc4ccc5nc4n3CCCCCCC3(CCC3)C(=O)N[C@@H]5C)n(C)c12 [Example 278, (11~{R})-17-[5-[(1~{R},2~{R},4~{S})-2-amino-7-azabicyclo[2.2.1]heptane-7-carbonyl]-7-methoxy-1-methyl-benzimidazol-2-yl]-11-methyl-spiro[1,10,19-triazatricyclo[10.5.2.0^{15,18}]nonadeca-12(19),13,15(18),16-tetraene-8,1′-cyclobutane]-9-one] | 47 nM
3 | C[C@H]1NC(=O)[C@@H]2C[C@H]2CCCC(F)(F)Cn2c(-c3nc4cc(C(=O)N5C[C@H](N)[C@@H]6CC[C@H]5C6)cc(F)c4n3[C@@H]3C[C@H]3F)cc3ccc1nc32 [Example 477, (2~{R},5~{R},7~{R})-14-[5-[(1~{S},4~{R},5~{R})-4-amino-2-azabicyclo[3.2.1]octane-2-carbonyl]-7-fluoro-1-[(1~{R},2~{R})-2-fluorocyclopropyl]benzimidazol-2-yl]-11,11-difluoro-2-methyl-3,13,19-triazatetracyclo[11.5.2.0^{5,7}.0^{16,20}] icosa-1(19),14,16(20),17-tetraen-4-one] | 35 nM
4 | C[C@H]1NC(=O)C2(CC2)OCCCC(F)(F)Cn2c(-c3nc4cc(C(=O)N5C[C@H](N)[C@@H]6CC[C@H]5C6)cc(F)c4n3C3CC3)cc3ccc1nc32 [Example 773, (11~{R})-17-[5-[(1~{S},4~{R}, 5~{R})-4-amino-2-azabicyclo [3.2.1]octane-2-carbonyl]-1-cyclopropyl-7-fluoro-benzimidazol-2-yl]-3,3-difluoro-11-methyl-spiro[7-oxa-1,10,19-triazatricyclo[10.5.2.0^ {15,18}]nonadeca-12(19),13,15(18),16-tetraene-8,1′-cyclopropane]-9-one] | 16 nM
5 | C[C@H]1NC(=O)[C@@H]2C[C@H]2CCCC(F)(F)Cn2c(-c3nc4cc(C(=O)N5C[C@H](N)[C@@H]6CC[C@H]5C6)cc(F)c4n3[C@H]3C[C@@H]3C(F)F)cc3ccc1nc32 (single isomer, unassigned) [Example 453, (2~{R},5~{R},7~{R})-14-[5-[(1~{S},4~{R},5~{R})-4-amino-2-azabicyclo[3.2.1]octane-2-carbonyl]-1-[(1~{S},2~{S})-2-(difluoromethyl)cyclopropyl]-7-fluoro-benzimidazol-2-yl]-11,11-difluoro-2-methyl-3,13,19-triazatetracyclo[11.5.2.0^{5,7}.0^{16,20}] icosa-1(19),14,16(20),17-tetraen-4-one] | 53 nM
6 | COc1cc(C(=O)N2C[C@H](N)[C@@H]3CC[C@H]2C3)cc2nc(-c3cc4ccc5nc4n3CC(F)(F)CCCOC3(CC3)C(=O)N[C@@H]5C)n(C3CC3)c12 [Example 931, (11~{R})-17-[5-[(1~{S},4~{R}, 5~{R})-4-amino-2-azabicyclo [3.2.1]octane-2-carbonyl]-1-cyclopropyl-7-methoxy-benzimidazol-2-yl]-3,3-difluoro-11-methyl-spiro[7-oxa-1,10,19-triazatricyclo[10.5.2.0^ {15,18}]nonadeca-12(19), 13,15(18),16-tetraene-8,1′-cyclopropane]-9-one] | 64 nM
7 | COCCO[C@@H]1CCN(C(=O)c2cc(OC)c3c(c2)nc(-c2cc4ccc5nc4n2CCCCC[C@@H]2C[C@H]2C(=O)N[C@@H]5C)n3C)C[C@@H]1N [Example 493, (2~{R},5~{R},7~{R})-14-[5-[(3~{S},4~{R})-3-amino-4-(2-methoxyethoxy)piperidine-1-carbonyl]-7-methoxy-1-methyl-benzimidazol-2-yl]-2-methyl-3,13,19-triazatetracyclo [11.5.2.0^{5,7}.0^{16,20}] icosa-1(19),14,16(20), 17-tetraen-4-one] | 76 nM
8 | COc1cc(C(=O)N[C@H]2CNCC[C@@H]2F)cc2nc(-c3cc4ccc5nc4n3CCC/C=C/c3c(noc3C)C(=O)N[C@@H]5C)n(C)c12 [Example 399, 2-[(2~{R},10~{E})-2,8-dimethyl-4-oxo-7-oxa-3,6,15,21-tetrazatetracyclo[13.5.2.0^{5,9}.0^{18,22}]docosa-1(21),5,8,10,16,18(22),19-heptaen-16-yl]-~{N}-[(3~{S},4~{S})-4-fluoro-3-piperidyl]-7-methoxy-1-methyl-benzimidazole-5-carboxamide] | 86 nM
9 | COc1cc(C(=O)N2[C@H]3CC[C@@H]2[C@H](N)C3)cc2nc(-c3cc4ccc5nc4n3CCCCCCC(=O)N3CCC[C@H]53)n(C)c12 [Example 131, (2~{R})-15-[5-[(1~{R},2~{R},4~{S})-2-amino-7-azabicyclo[2.2.1]heptane-7-carbonyl]-7-methoxy-1-methyl-benzimidazol-2-yl]-6,14,20-triazatetracyclo[12.5.2.0^{2,6}.0^{17,21}] henicosa-1(20),15,17(21),18-tetraen-7-one] | 15 nM

More lines, now with the values ahead:

Row | IC50 | SMILES
10 | 13 nM | COc1cc(C(=O)N2C[C@H](N)[C@@H]3CC[C@H]2C3)cc2nc(-c3cc4ccc5nc4n3CC(F)(F)CCC[C@]3(F)C[C@H]3C(=O)N[C@@H]5C)n(C3CC3)c12 [Example 769, (2~{R},5~{S},7~{S})-14-[5-[(1~{S},4~{R},5~{R})-4-amino-2-azabicyclo[3.2.1]octane-2-carbonyl]-1-cyclopropyl-7-methoxy-benzimidazol-2-yl]-7,11,11-trifluoro-2-methyl-3,13,19-triazatetracyclo [11.5.2.0^{5,7}.0^{16,20}] icosa-1(19),14,16(20), 17-tetraen-4-one]
11 | 85 nM | COc1cc(C(=O)N2CC[C@@H](OC)[C@@H](N)C2)cc2nc(-c3cc4ccc5nc4n3CCCCCCC3(COC3)C(=O)N[C@@H]5C)n(C)c12 [Example 611, (11~{R})-17-[5-[(3~{S}, 4-{R})-3-amino-4-methoxy-piperidine-1-carbonyl]-7-methoxy-1-methyl-benzimidazol-2-yl]-11-methyl-spiro[1,10,19-triazatricyclo[10.5.2.0^{15,18}]nonadeca-12,14,16,18-tetraene-8,3′-oxetane]-9-one]
12 | 112 nM | COc1cc(C(=O)N[C@H]2CNCC[C@@H]2F)cc2nc(-c3cc4ccc5nc4n3CC(F)(F)CCCCC(C)(C)C(=O)N[C@@H]5C)n(C)c12 [Example 594, 2-[(11~{R})-3,3-difluoro-8,8,11-trimethyl-9-oxo-1,10,19-triazatricyclo [10.5.2.0^{15,18}]nonadeca-12,14,16,18-tetraen-17-yl]-~ {N}-[(3~{S},4~{S})-4-fluoro-3-piperidyl]-7-methoxy-1-methyl-benzimidazole-5-carboxamide]
13 | 253 nM | COc1cc(C(=O)N2CC[C@@H](OC(F)F)[C@@H](N)C2)cc2nc(-c3cc4ccc5nc4n3CCCCCc3ccccc3C(=O)N[C@@H]5C)n(C)c12 [Example 491, (2~{R})-17-[5-[(3~ {S},4~{R})-3-amino-4-(difluoromethoxy)piperidine-1-carbonyl]-7-methoxy-1-methyl-benzimidazol-2-yl]-2-methyl-3,16,22-triazatetracyclo [14.5.2.0^{5,10}.0^{19,23}] tricosa-1(22),5(10), 6,8,17,19(23),20-heptaen-4-one]
